Measured values: patent US20250177334A1, “Pharmaceutical Compositions Comprising Phenylsulfonamides, and Their Therapeutic Applications” (Cura Therapeutics, LLC, priority 2018, published 2025)
Several values for one entry are separate records, joined by “and”; a condition that tells them apart may be missing. Identical values can stand only once. Like-named read-outs stand apart in the source and are kept apart here. One block for each compound: values may come before it.

Experiments:
[1] = Metabolic stability in fresh human plasma (LC/MS/MS peak heights); type: in vitro ADME; details: for % Remaining: plasma; for Peak Height: duplicate aliquots
Procedure: Compounds A1-A3 were independently spiked directly into an individual lot of fresh human plasma, with sodium heparin as the anticoagulant, such that the final assay concentration of each compound was 1.00 μM. After incubation at room temperature for 0, 0.5, 1, 2, and 4 hours, samples were removed and aliquoted for analysis. Valacyclovir was used as a positive control. The plasma samples containing a test compound were processed by protein precipitation.
A primary 1.00 mM stock solution of a test compound was prepared in either acetonitrile or acetonitrile:water (1:1, v/v). A 0.200 mM working stock was made from the primary stock in acetonitrile water (1:1, v/v), which was used in the human plasma stabiltity study. The primary and working stock solutions were stored at −20° C. when not in use. When it was used in the assay, the working stock was kept at room temperature for as short a time as possible.
The human plasma stabiltity study was initiated by adding 5.00 μL of a test compound stock solution to 0.995 mL of human plasma (sodium heparin) in a 1.7-mL snap tube. Time zero points were generated by immediately removing duplicate 50.0 μL aliquots of plasma after initiating each incubation and quenching in 150 μL of methanol. The plasma incubation tubes were capped and remained at room temperature between time points.
After 0.5, 1, 2, and 4 hours of incubation, duplicate 50.0 μL aliquots of plasma were removed and placed into the extraction tubes containing 150 μL of methanol. Each time point was immediately extracted by vortex mixing, centrifuged, and the supernate removed to HPLC vial for analysis. After extraction of all samples, the extracts were analyzed by LC/MS/MS.
LC/MS/MS analysis of the incubation solutions was conducted by initial separation of a test compound peak using chromatography prior to detection by a mass spectrometer. The LC/MS system was comprised of a HPLC coupled with a TQS-Micro or Quattro Premier. The mobile phase was nebulized using heated nitrogen in a Z-spray source/interface set to electrospray in either positive ionization mode or negative ionization mode. The ionized compounds were detected using MS/MS. The data was acquired using MassLynx.
The peak heights for compounds A1-A3 are presented in Table 1, whereas the peak heights for the positive control are shown in Table 2.

[2] = Pharmacokinetic study of compound A2 in rats; type: in vivo
Procedure: A pharmacokinetic study on compound A2 was carried out in rats.

[3] = Compound A2 concentration in the CSF of rats; type: in vivo
Procedure: Compound A2 in the CSF of the rats was also analyzed. The results are shown in Table 4 below, wherein BQL stands for below the quantifiable limit of 2.0 ng/mL.

[4] = fresh human plasma, 1.00 μM, room temperature, 0 h
[5] = fresh human plasma, 1.00 μM, room temperature, 0.5 h
[6] = fresh human plasma, 1.00 μM, room temperature, 4 h

Mean Height ([1]; human, 0 h, 1 μM): 4,250
Mean Height ([1]; human, 0.5 h, 1 μM): 3,740
Mean Height ([1]; human, 1 h, 1 μM): 3,680
Mean Height ([1]; human, 2 h, 1 μM): 3,510
Mean Height ([1]; human, 4 h, 1 μM): 3,670
% Remaining ([1]; human, 0 h, 1 μM): 100%
% Remaining ([1]; human, 0.5 h, 1 μM): 88%
% Remaining ([1]; human, 1 h, 1 μM): 87%
% Remaining ([1]; human, 2 h, 1 μM): 83%
% Remaining ([1]; human, 4 h, 1 μM): 86%
Structure (SMILES): CS(=O)(=O)Nc1cccc(NS(=O)(=O)c2ccc(C(=O)O)cc2)c1 [Compound A1, 4-(N-(3-(methylsulfonamido)phenyl)sulfamoyl)benzoic acid]

Mean Height ([1]; human, 0 h, 1 μM): 12,600
Mean Height ([1]; human, 0.5 h, 1 μM): 13,300
Mean Height ([1]; human, 1 h, 1 μM): 13,000
Mean Height ([1]; human, 2 h, 1 μM): 13,000
Mean Height ([1]; human, 4 h, 1 μM): 13,100
% Remaining ([1]; human, 0 h, 1 μM): 100%
% Remaining ([1]; human, 0.5 h, 1 μM): 106%
% Remaining ([1]; human, 1 h, 1 μM): 103%
% Remaining ([1]; human, 2 h, 1 μM): 103%
% Remaining ([1]; human, 4 h, 1 μM): 104%
AUCINF/Dose ([2]; IV): 13800
CL or CL/F ([2]; IV): 0.072 L/h/kg
HL ([2]; IV): 5 h
AUCINF/Dose ([2]; PO): 6420
HL ([2]; PO): 7 h
AUC(0-inf) ([2]; rat, in vivo, 1 mg/kg, IV): 13.8 µg·h/mL
AUC(0-t) ([2]; rat, in vivo, 1 mg/kg, IV): 13.4 µg·h/mL
Cmax ([2]; rat, in vivo, 1 mg/kg, IV): 4310 ng/mL
AUC(0-inf) ([2]; rat, in vivo, 10 mg/kg, PO): 64.2 µg·h/mL
AUC(0-t) ([2]; rat, in vivo, 10 mg/kg, PO): 56.2 µg·h/mL
Cmax ([2]; rat, in vivo, 10 mg/kg, PO): 4590 ng/mL
Tmax ([2]; rat, in vivo, 10 mg/kg, PO): 4 h
bioavailability ([2]; rat, in vivo, 10 mg/kg, PO): 45%
CL/F ([2]; rat, in vivo, 10 mg/kg, PO, read-out: CL or CL/F): 0.156 L/h/kg
CSF Concentration ([3]; IV, 1.0 h, individual animals): 4.2 ng/mL and 17 ng/mL
CSF Concentration ([3]; PO, 1.0 h, individual animals): 5.3 ng/mL and 32 ng/mL and 6.7 ng/mL
CSF Concentration ([3]; PO, 2.0 h, individual animals): 2.8 ng/mL and 3.1 ng/mL
CSF Concentration ([3]; PO, 4.0 h, individual animals): 139 ng/mL and 56 ng/mL
CSF Concentration ([3]; PO, 12 h, individual animals): 1.5 ng/mL and 11 ng/mL
concentration at 1 h ([3]; rat, CSF, iv, 1 mg/kg, 1.0 h, mean): 11 ng/mL
concentration at 0.5 h ([3]; rat, CSF, iv, 1 mg/kg, IV, 0.5 h, mean, read-out: CSF Concentration, Mean): 33 ng/mL
concentration at 2 h ([3]; rat, CSF, iv, 1 mg/kg, IV, 2.0 h, individual animals, read-out: CSF Concentration): 4.9 ng/mL
concentration at 2 h ([3]; rat, CSF, iv, 1 mg/kg, IV, 2.0 h, mean, read-out: CSF Concentration, Mean): 4.9 ng/mL
concentration at 4 h ([3]; rat, CSF, iv, 1 mg/kg, IV, 4.0 h, individual animals, read-out: CSF Concentration): 15 ng/mL
concentration at 4 h ([3]; rat, CSF, iv, 1 mg/kg, IV, 4.0 h, mean, read-out: CSF Concentration, Mean): 15 ng/mL
concentration at 8 h ([3]; rat, CSF, iv, 1 mg/kg, IV, 8.0 h, individual animals, read-out: CSF Concentration): 1.4 ng/mL
concentration at 8 h ([3]; rat, CSF, iv, 1 mg/kg, IV, 8.0 h, mean, read-out: CSF Concentration, Mean): 1.4 ng/mL
concentration at 1 h ([3]; rat, CSF, po, 10 mg/kg, 1.0 h, mean): 15 ng/mL
concentration at 12 h ([3]; rat, CSF, po, 10 mg/kg, 12 h, mean): 6.5 ng/mL
concentration at 0.5 h ([3]; rat, CSF, po, 10 mg/kg, PO, 0.5 h, individual animals, read-out: CSF Concentration): 2.7 ng/mL
concentration at 0.5 h ([3]; rat, CSF, po, 10 mg/kg, PO, 0.5 h, mean, read-out: CSF Concentration, Mean): 3.5 ng/mL
concentration at 2 h ([3]; rat, CSF, po, 10 mg/kg, PO, 2.0 h, individual animals, read-out: CSF Concentration): 3.6 ng/mL
concentration at 2 h ([3]; rat, CSF, po, 10 mg/kg, PO, 2.0 h, mean, read-out: CSF Concentration, Mean): 3.2 ng/mL
concentration at 4 h ([3]; rat, CSF, po, 10 mg/kg, PO, 4.0 h, mean, read-out: CSF Concentration, Mean): 97.4 ng/mL
concentration at 8 h ([3]; rat, CSF, po, 10 mg/kg, PO, 8.0 h, mean, read-out: CSF Concentration, Mean): 11 ng/mL
concentration at 24 h ([3]; rat, CSF, po, 10 mg/kg, PO, 24 h, individual animals, read-out: CSF Concentration): 2 ng/mL
concentration at 24 h ([3]; rat, CSF, po, 10 mg/kg, PO, 24 h, mean, read-out: CSF Concentration, Mean): 2 ng/mL
Structure (SMILES): Cc1ccc(C(F)(F)F)cc1NS(=O)(=O)c1cccc(C(=O)O)c1 [Compound A2, 3-(N-(2-methyl-5-(trifluoromethyl)phenyl)sulfamoyl)benzoic acid]
CSF Concentration ([3]; IV, 0.00 h, individual animals): BQL (BQL stands for below the quantifiable limit of 2.0 ng/mL)
CSF Concentration ([3]; IV, 0.5 h, individual animals): 65 ng/mL and 0.95 ng/mL and BQL (BQL stands for below the quantifiable limit of 2.0 ng/mL)
CSF Concentration ([3]; IV, 2.0 h, individual animals): BQL (BQL stands for below the quantifiable limit of 2.0 ng/mL)
CSF Concentration ([3]; IV, 8.0 h, individual animals): BQL (BQL stands for below the quantifiable limit of 2.0 ng/mL)
CSF Concentration ([3]; IV, 12 h, individual animals): BQL (BQL stands for below the quantifiable limit of 2.0 ng/mL)
CSF Concentration ([3]; IV, 24 h, individual animals): BQL (BQL stands for below the quantifiable limit of 2.0 ng/mL)
CSF Concentration ([3]; PO, 0.00 h, individual animals): BQL (BQL stands for below the quantifiable limit of 2.0 ng/mL)
CSF Concentration ([3]; PO, 0.5 h, individual animals): 4.3 ng/mL and BQL (BQL stands for below the quantifiable limit of 2.0 ng/mL)
CSF Concentration ([3]; PO, 8.0 h, individual animals): BQL (BQL stands for below the quantifiable limit of 2.0 ng/mL) and 1.6 ng/mL and 20 ng/mL
CSF Concentration ([3]; PO, 24 h, individual animals): BQL (BQL stands for below the quantifiable limit of 2.0 ng/mL)

Mean Height ([1]; human, 0 h, 1 μM): 4,210
Mean Height ([1]; human, 0.5 h, 1 μM): 4,100
Mean Height ([1]; human, 1 h, 1 μM): 3,660
Mean Height ([1]; human, 2 h, 1 μM): 3,440
Mean Height ([1]; human, 4 h, 1 μM): 3,850
% Remaining ([1]; human, 0 h, 1 μM): 100%
% Remaining ([1]; human, 0.5 h, 1 μM): 97%
% Remaining ([1]; human, 1 h, 1 μM): 87%
% Remaining ([1]; human, 2 h, 1 μM): 82%
% Remaining ([1]; human, 4 h, 1 μM): 91%
Structure (SMILES): COc1cc(NS(=O)(=O)c2cccc(C(=O)O)c2)cc(OC)c1 [Compound A3, 3-(N-(3,5-dimethoxyphenyl)sulfamoyl)benzoic acid]

Mean Height [1, 4]: 21,400
Peak Height [1, 4]: 21,201 and 21,603
Mean Height [1, 5]: 20,700
Peak Height [1, 5]: 21,055 and 20,329
Mean Height ([1]; fresh human plasma, 1.00 μM, room temperature, 1 h): 20,500
Peak Height ([1]; fresh human plasma, 1.00 μM, room temperature, 2 h): 19,941 and 19,624
Mean Height [1, 6]: 17,700
Peak Height [1, 6]: 17,697 and 17,785
Mean Height ([1]; human, 2 h, 1 μM): 19,800
% Remaining ([1]; human, 0 h, 1 μM): 100%
% Remaining ([1]; human, 0.5 h, 1 μM): 96.7%
% Remaining ([1]; human, 1 h, 1 μM): 95.8%
% Remaining ([1]; human, 2 h, 1 μM): 92.5%
% Remaining ([1]; human, 4 h, 1 μM): 82.7%
Structure (SMILES): CC(C)[C@H](N)C(=O)OCCOCn1cnc2c(=O)[nH]c(N)nc21 [Valacyclovir, reference compound]
